Reference: US4272437A, “Antibacterial agents, and 4-thio azetidinone intermediates” (priority 1979, dated 1981)
Converted amounts (≈) assume the structure as drawn. Where two headings read alike, the source gives them in different places.

How the values were obtained:
Str. pneumoniae A-9585 = assay: MIC, tube dilution, Streptococcus pneumoniae A9585; type: cell-based; conditions: Streptococcus pneumoniae, A9585, Str. pneumoniae A9585; overnight 37° C., Nutrient Broth; read-out: Minimum Inhibitory Concentration (M.I.C.)
Source text: (§1) Representative compounds of the present invention were subjected to in vitro antibiotic screening against a variety of microorganisms.

Str. pyogenes A-9604 = assay: MIC, tube dilution, Streptococcus pyogenes A9604; type: cell-based; conditions: Streptococcus pyogenes, A9604, Str. pyogenes A9604; overnight 37° C., Nutrient Broth; read-out: Minimum Inhibitory Concentration (M.I.C.)
Source text: as §1

Staph. aureus A-9537 = assay: MIC, tube dilution, Staphylococcus aureus A9537; type: cell-based; conditions: Staphylococcus aureus, A9537, Staph. aureus A9537; overnight 37° C., Nutrient Broth; read-out: Minimum Inhibitory Concentration (M.I.C.)
Source text: as §1

[1] = test system: Staph. aureus A-9537 and 50% serum; assay: MIC, tube dilution, Staph. aureus A9537 + 50% serum; type: cell-based, Staphylococcus aureus; conditions: Staphylococcus aureus, overnight 37° C., read-out: Minimum Inhibitory Concentration (M.I.C.)
Source text: as §1

[2] = test system: Staph. aureus (Pen-Res) A-9606; assay: MIC, tube dilution, Staphylococcus aureus A9606 (Pen-Res); type: cell-based; conditions: Staphylococcus aureus, Staph. aureus A9606 (Pen-Res); overnight 37° C.; read-out: Minimum Inhibitory Concentration (M.I.C.)
Source text: as §1

[3] = test system: Staph. aureus (Meth-Res) A-15097; assay: MIC, tube dilution, Staphylococcus aureus A15097 (Meth-Res); type: cell-based; conditions: Staphylococcus aureus, Staph. aureus A15097 (Meth-Res); overnight 37° C.; read-out: Minimum Inhibitory Concentration (M.I.C.)
Source text: as §1

Str. faecalis A-20688 = assay: MIC, tube dilution, Streptococcus faecalis A20688; type: cell-based; conditions: Enterococcus faecalis, A20688, Str. faecalis A20688; overnight 37° C.; read-out: Minimum Inhibitory Concentration (M.I.C.)
Source text: as §1

E. coli A-15119 = assay: MIC, tube dilution, Escherichia coli A15119; type: cell-based; conditions: Escherichia coli, A15119, E. coli A15119; overnight 37° C.; read-out: Minimum Inhibitory Concentration (M.I.C.)
Source text: as §1

E. coli A-20341-1 = assay: MIC, tube dilution, Escherichia coli A20341-1; type: cell-based
Source text: as §1

K. pneumoniae A-15130 = assay: MIC, tube dilution, Klebsiella pneumoniae A15130; type: cell-based; conditions: Klebsiella pneumoniae, A15130, K. pneumoniae A15130; overnight 37° C.; read-out: Minimum Inhibitory Concentration (M.I.C.)
Source text: as §1

[4] = test system: Klebsiella species A20468; assay: MIC, tube dilution, Klebsiella species A20468; type: cell-based; conditions: Klebsiella species (K. pneumoniae) A20468; overnight 37° C.; read-out: Minimum Inhibitory Concentration (M.I.C.)
Source text: as §1

Pr. mirabilis A-9900 = assay: MIC, tube dilution, Proteus mirabilis A9900; type: cell-based; conditions: Proteus mirabilis, A9900, Proteus mirabilis A9900; overnight 37° C.; read-out: Minimum Inhibitory Concentration (M.I.C.)
Source text: as §1

Pr. morganii A-15153 = assay: MIC, tube dilution, Proteus morganii A15153; type: cell-based; conditions: Morganella morganii, A15153, Proteus morganii A15153; overnight 37° C.; read-out: Minimum Inhibitory Concentration (M.I.C.)
Source text: as §1

Ser. marcescens A-20019 = assay: MIC, tube dilution, Serratia marcescens A20019; type: cell-based; conditions: Serratia marcescens, A20019, Serratia marcescens A20019; overnight 37° C.; read-out: Minimum Inhibitory Concentration (M.I.C.)
Source text: as §1

Ent. cloacae A-9659 = assay: MIC, tube dilution, Enterobacter cloacae A9659; type: cell-based; conditions: Enterobacter cloacae, A9659, Enterobacter cloacae A9659; overnight 37° C.; read-out: Minimum Inhibitory Concentration (M.I.C.)
Source text: as §1

Ent. cloacae A-9656 = assay: MIC, tube dilution, Enterobacter cloacae A9656; type: cell-based; conditions: overnight 37° C., read-out: Minimum Inhibitory Concentration (M.I.C.)
Source text: as §1

Ps. aeruginosa A-9843A = assay: MIC, tube dilution, Pseudomonas aeruginosa A9843A; type: cell-based; conditions: Pseudomonas aeruginosa, A9843A, read-out: Minimum Inhibitory Concentration (M.I.C.), Pseudomonas aeruginosa A9843A; overnight 37° C.
Source text: as §1

Ps. aeruginosa A-21213 = assay: MIC, tube dilution, Pseudomonas aeruginosa A21213; type: cell-based; conditions: overnight 37° C., read-out: Minimum Inhibitory Concentration (M.I.C.)
Source text: as §1

Proteus rettgeri A21203 = assay: MIC, tube dilution, Proteus rettgeri A21203; type: cell-based; conditions: Providencia rettgeri, overnight 37° C., read-out: Minimum Inhibitory Concentration (M.I.C.)
Source text: as §1

Proteus vulgaris A21559 = assay: MIC, tube dilution, Proteus vulgaris A21559; type: cell-based; conditions: Proteus vulgaris, A21559, Proteus vulgaris A21559; overnight 37° C.; read-out: Minimum Inhibitory Concentration (M.I.C.)
Source text: as §1

[5] = Escherichia coli, A203411; E. coli A20341-1; overnight 37° C.; read-out: Minimum Inhibitory Concentration (M.I.C.)
[6] = Enterobacter cloacae, A9656, Enterobacter cloacae A9656
[7] = A21203, Proteus rettgeri A21203
[8] = Escherichia coli, A203411, E. coli A20341-1; overnight 37° C.; read-out: Minimum Inhibitory Concentration (M.I.C.)
[9] = Pseudomonas aeruginosa, A21213, Pseudomonas aeruginosa A21213

Row | SMILES | MIC (Str. pneumoniae A-9585) [µg/mL] | MIC (Str. pyogenes A-9604) [µg/mL] | MIC (Staph. aureus A-9537) [µg/mL] | MIC [1] [µg/mL] | MIC [2] [µg/mL] | MIC [3] [µg/mL] | MIC (Str. faecalis A-20688) [µg/mL] | MIC (E. coli A-15119) [µg/mL] | MIC (E. coli A-20341-1; [5]) [µg/mL] | MIC (K. pneumoniae A-15130) [µg/mL] | MIC [4] [µg/mL] | MIC (Pr. mirabilis A-9900) [µg/mL] | MIC (Pr. morganii A-15153) [µg/mL] | MIC (Ser. marcescens A-20019) [µg/mL] | MIC (Ent. cloacae A-9659) [µg/mL] | MIC (Ent. cloacae A-9656; [6]) [µg/mL] | MIC (Ps. aeruginosa A-9843A) [µg/mL] | MIC (Ps. aeruginosa A-21213; Pseudomonas aeruginosa A21213) [µg/mL] | MIC (Proteus rettgeri A21203; [7]) [µg/mL] | MIC (Proteus vulgaris A21559) [µg/mL] | further results
1 | O=C(O)C1=C(Cn2cnnn2)SC2CC(=O)N12 (centres unmarked) [Example 76, Sodium 2-(1H-Tetrazolemethyl)-penem-3-carboxylate] | 0.03 | 0.5 | 1 | > 63 | 4 | 8 | 125 | 4 | > 125 | 63 | > 125 | 8 | 16 | 16 | 16 | 16 | > 125 | > 125 | 8 | 8 | –
2 | Cc1cc(C)n(CC2=C(C(=O)O)N3C(=O)CC3S2)n1 (centres unmarked) [Example 77, Sodium 2-(3,5-Dimethyl-1H-pyrazolemethyl)-penem-3-carboxylate] | 0.03 | 0.5 | 0.13 | > 63 | 4 | 16 | 125 | 4 | > 125 | > 125 | > 125 | 2 | 16 | > 125 | > 125 | – | > 125 | > 125 | – | 63 | MIC (Ent. cloacae A-9656; Enterobacter cloacae A9656): 125 µg/mL; MIC (Proteus rettgeri A21203; Proteus rettgeri A21203): > 125 µg/mL
3 | NCC(=O)OCC1=C(C(=O)O)N2C(=O)CC2S1 (centres unmarked) [Example 81, 2-Aminoacetoxymethyl-penem-3-carboxylic Acid] | 2 (≈ 7.74 µM) | 16 (≈ 62 µM) | 32 (≈ 124 µM) | > 32 | 2 (≈ 7.74 µM) | 8 (≈ 31 µM) | 63 (≈ 244 µM) | 2 (≈ 7.74 µM) | – | 8 (≈ 31 µM) | > 63 | 4 (≈ 15.5 µM) | 8 (≈ 31 µM) | 8 (≈ 31 µM) | 8 (≈ 31 µM) | 8 (≈ 31 µM) | 63 (≈ 244 µM) | – | 8 (≈ 31 µM) | 16 (≈ 62 µM) | MIC (E. coli A-20341-1; [8]): 32 µg/mL (≈ 124 µM); MIC (Ps. aeruginosa A-21213; [9]): > 63 µg/mL
4 | NCc1ccc(CC2=C(C(=O)O)N3C(=O)CC3S2)cc1 (centres unmarked) [Example 85, 2-(p-Aminomethylbenzyl)penem-3-carboxylic Acid] | 0.06 (≈ 0.207 µM) | 0.06 (≈ 0.207 µM) | 0.06 (≈ 0.207 µM) | 1 | 16 (≈ 55.1 µM) | > 63 | 16 (≈ 55.1 µM) | 4 (≈ 13.8 µM) | – | 32 (≈ 110 µM) | > 63 | 4 (≈ 13.8 µM) | 4 (≈ 13.8 µM) | 4 (≈ 13.8 µM) | 8 (≈ 27.6 µM) | 8 (≈ 27.6 µM) | 8 (≈ 27.6 µM) | – | 4 (≈ 13.8 µM) | > 63 | MIC (E. coli A-20341-1; [8]): 63 µg/mL (≈ 217 µM); MIC (Ps. aeruginosa A-21213; [9]): 63 µg/mL (≈ 217 µM)
